In patent US9550785B2, “Pyrrolopyrimidines as therapeutic agents for the treatment of diseases” (GlaxoSmithKline LLC, priority 2012, dated 2017):
Structures can show the parent of a compound that is named as a salt.

What was measured:
Interferon-α = assay: Induction of Interferon-α using fresh human whole blood (WB); assay type: cell-based; details: three donors, overnight incubation, cytokine released as percentage of 2 μM resiquimod control, read-out: mean pEC50 for INF-α (converted)
Protocol: (§1) Assay for the Induction of Interferon-α and TNF-α Using Fresh Human Whole Blood (WB)
(§2) Compounds were prepared at 100× required concentration in DMSO in flat-bottom microtitre plates at a volume of 1.5 μL. Columns 1-10 contained a 1 in 4 serial dilution of the test compound. Included on each plate was a serial dilution of the TLR7/8 agonist resiquimod as a standard and Column 11 contained 1.5 μl of 200 μM resiquimod (giving a 2 μM final concentration, used to define the approximate maximal response to resiquimod). Each compound was assayed in duplicate for each donor.
(§3) Blood samples from three human donors were collected into sodium heparin (10 U/ml). 150 μl of whole Blood was dispensed into Col 1 to 11 of assay plates containing 1.5 μl of test compound or standard in DMSO. Plates were placed in an incubator overnight (37° C., 95% air, 5% CO2). Following the overnight incubation, plates were removed from the incubator & mixed on an orbital shaker for approximately 1 minute. 100 μl of 0.9% saline was added to each well and the plates mixed again on an orbital shaker. Plates were then centrifuged (2500 rpm, 10 mins), after which a sample of plasma was removed using a Biomek FX and assayed for both IFN-α and TNF-α using the MSD (Mesoscale Discovery) electrochemiluminescence assay platform. The IFN-α assay was carried out similarly to that described above. The TNF-α assay was carried out as per kit instructions (Cat No K111BHB).
(§4) Cytokine released was expressed as a percentage of the 2 μM resiquimod control (column 11). This percentage was plotted against compound concentration and the pEC50 for the response determined by non-linear least squares curve fitting. For the IFN-α responses, generally a 4 parameter logistic model was selected. For the TNF-α responses where a clear maximum response was obtained (i.e. a well defined plateau in the response was observed) then a 4 parameter model was generally used. […]

TNF-α = assay: Induction of TNF-α using fresh human whole blood (WB); assay type: cell-based; details: three donors, overnight incubation, cytokine released as percentage of 2 μM resiquimod control, read-out: mean pEC50 for TNF-α (converted)
Protocol: as §1, §2, §3, §4

| SMILES | EC50 (Interferon-α) [µM] | EC50 (TNF-α) [µM] |
| --- | --- | --- |
| CCCCc1nc(N)c2[nH]cc(CCCC3CCNCC3)c2n1 [Example 1, 2-Butyl-7-(3-(piperidin-4-yl)propyl)-5H-pyrrolo[3,2-d]pyrimidin-4-amine formate] | ≤ 0.398 | ≤ 10 |
| CCCCc1nc(N)c2[nH]cc(CCCC3CCN(C(C)C)CC3)c2n1 [Example 2, 2-Butyl-7-(3-(1-isopropylpiperidin-4-yl)propyl)-5H-pyrrolo[3,2-d]pyrimidin-4-amine] | ≤ 0.398 | ≤ 10 |
| CCCCc1nc(N)c2[nH]cc(CCC3CCNCC3)c2n1 [Example 3, 2-Butyl-7-(2-(piperidin-4-yl)ethyl)-5H-pyrrolo[3,2-d]pyrimidin-4-amine] | ≤ 0.398 | ≤ 10 |
